Measurements as given in patent US20240261417A1, “SOS1 DEGRADING AGENT AND PREPARATION METHOD THEREFOR AND APPLICATION THEREOF” (SHANGHAI LEADINGTAC PHARMACEUTICAL CO. LTD., priority 2021, published 2024).

Biological target: T1, SOS1 protein (Homo sapiens, UniProt Q07889)
T1 sequence (Q07889 1-1333): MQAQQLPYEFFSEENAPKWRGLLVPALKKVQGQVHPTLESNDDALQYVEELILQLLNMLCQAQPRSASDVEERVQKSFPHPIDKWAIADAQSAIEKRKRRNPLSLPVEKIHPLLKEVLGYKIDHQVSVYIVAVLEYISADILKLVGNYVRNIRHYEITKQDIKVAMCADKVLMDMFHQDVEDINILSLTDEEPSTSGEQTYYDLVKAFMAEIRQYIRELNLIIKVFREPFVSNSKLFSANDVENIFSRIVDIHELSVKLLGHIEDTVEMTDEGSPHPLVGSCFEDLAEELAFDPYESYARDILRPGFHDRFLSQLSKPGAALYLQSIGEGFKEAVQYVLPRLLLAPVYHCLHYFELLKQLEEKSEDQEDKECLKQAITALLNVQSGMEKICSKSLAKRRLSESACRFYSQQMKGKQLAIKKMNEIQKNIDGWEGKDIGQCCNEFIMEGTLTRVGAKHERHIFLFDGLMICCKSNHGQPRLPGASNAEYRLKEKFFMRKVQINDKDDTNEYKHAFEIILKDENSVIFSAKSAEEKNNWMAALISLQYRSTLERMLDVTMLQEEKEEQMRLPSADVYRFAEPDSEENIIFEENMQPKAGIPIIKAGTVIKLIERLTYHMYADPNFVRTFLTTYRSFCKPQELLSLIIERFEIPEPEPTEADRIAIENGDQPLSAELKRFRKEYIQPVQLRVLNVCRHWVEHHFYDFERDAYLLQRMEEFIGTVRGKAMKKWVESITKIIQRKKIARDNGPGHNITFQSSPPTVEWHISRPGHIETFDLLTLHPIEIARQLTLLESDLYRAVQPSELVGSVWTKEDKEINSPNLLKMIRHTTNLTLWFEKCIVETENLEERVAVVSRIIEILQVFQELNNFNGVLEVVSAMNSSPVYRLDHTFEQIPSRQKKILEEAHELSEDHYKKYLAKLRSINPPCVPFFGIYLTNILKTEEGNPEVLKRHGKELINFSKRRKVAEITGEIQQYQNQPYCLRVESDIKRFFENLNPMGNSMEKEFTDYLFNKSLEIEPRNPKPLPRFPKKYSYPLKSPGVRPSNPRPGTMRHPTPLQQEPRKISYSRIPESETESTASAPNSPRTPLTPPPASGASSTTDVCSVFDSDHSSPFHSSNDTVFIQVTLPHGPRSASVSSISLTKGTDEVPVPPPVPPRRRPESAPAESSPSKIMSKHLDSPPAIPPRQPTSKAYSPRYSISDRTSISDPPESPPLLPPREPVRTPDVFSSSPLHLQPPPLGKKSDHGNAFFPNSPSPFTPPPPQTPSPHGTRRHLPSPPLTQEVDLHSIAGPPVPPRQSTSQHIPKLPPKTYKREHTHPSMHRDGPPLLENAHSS
Assay: SOS1 degradation assay (Western blot), NCI-H358 cells
Format: cell-based
Set-up: The degradation of SOS1 by the compounds was investigated on KRAS G12C mutant human non-small cell lung cancer cells NCI-H358; host or cells: NCI-H358 (human cancer cell lines)
Details: SOS1 degradation, NCI-H358 cells, 24 h, Western blot; for DC50: read-out: NCI-H358 (G12C) DC50; for Dmax: read-out: NCI-H358 (G12C) Dmax
Description: The specific procedures were as follows:
0.95 mL of cells were seeded into each well of a 24-well cell culture plate to achieve a cell density of 5×10^5 cells/well; the cell plate was incubated in an incubator at 37° C. with 5% CO2 overnight. Then 50 μL of the compound solution after dilution was added to each of the wells with the corresponding cells, so that the final concentration of the compound was in a range of 0.03-3000 nM. […] After dosing, the cell plate was incubated in an incubator at 37° C. with 5% CO2 for 24 h. […] After the plate was left to stand on ice for 30 min, the protein lysate in each well was transferred to a 1.5 mL centrifuge tube and centrifuged at 15000 g for 20 min at 4° C. The cell lysate supernatant after centrifugation was cryopreserved at −80° C. for testing and was used for determining the degradation level of the SOS1 protein by a WB method. The concentration of total protein in the cell lysate supernatant was determined using the BCA Protein Quantification Kit (Tiangen, PA115-02).
The concentration of total protein in the cell lysate was determined by BCA. The total protein was adjusted to 0.5 μg/μL with PBS and 5× SDS-PAGE protein loading buffer (Beyotime, P0015L), incubated in a water bath at 100° C. for 15 min, incubated in an ice bath on ice for 5 min, centrifuged at 14000 g for 1 min at 4° C., and mixed well as a loading sample for WB. Protein electrophoresis was performed on a precast gel (KeyGEN, KGMGO10W15) with a loading volume of 10 μL (total protein: 5 μg) using a Tris-MOPS-SDS running solution (Adamas, P1598253) at a constant voltage of 120 V for 55 min. After the electrophoresis, the protein on the gel strip was transferred to a PVDF membrane at a constant current of 250 mA for 65 min. After the membrane transfer, the membrane was incubated in 1× QuickBlock blocking buffer (Beyotime, P0235) for 30 min at room temperature. […] The protein map was subjected to gray value analysis by the chemiluminescence imaging system from Clinx. […] Then the degradation rate was calculated by comparing the gray correction value with the gray correction value of the control group. Then nonlinear curve fitting was performed by GraphPad Prism 8 in the logarithmic concentration-inhibition rate to obtain the DC50 and Dmax values of the compounds.

Compound | DC50 [nM] | Dmax [%] | NCI-H358 (G12C) Dmax
COc1cc2nc(C)nc(N[C@@H](C)c3cc(N)cc(C(F)(F)F)c3)c2cc1[C@H]1CC[C@@H](C(=O)N2CCN(CCC3CCC4(CC3)CCN(C(=O)c3ccc(Cl)c(N5CCC(=O)NC5=O)c3)CC4)CC2)CC1 [Example 34, 1-(5-(9-(2-(4-((1S,4S)-4-(4-(((R)-1-(3-amino-5-(trifluoromethyl)phenyl)ethyl)amino)-7-methoxy-2-methylquinazolin-6-yl)cyclohexane-1-carbonyl)piperazin-1-yl)ethyl)-3-azaspiro[5.5]undecane-3-carbonyl)-2-chlorophenyl)dihydropyrimidine-2,4(1H,3H)-dione] |  |  | C (when 30≤Dmax (%)<50, the level was C)
COc1cc2nc(C)nc(N[C@H](C)c3cc(N)cc(C(F)(F)F)c3)c2cc1C1CCC(C(=O)N2CCN(CC3CCC4(CC3)CCN(C(=O)c3ccc(C5CCC(=O)NC5=O)cc3)CC4)CC2)CC1 (stereo partly drawn) [Example 23, 3-(4-(9-((4-((1R,4R)-4-(4-(((R)-1-(3-amino-5-(trifluoromethyl)phenyl)ethyl)amino)-7-methoxy-2-methylquinazolin-6-yl)cyclohexane-1-carbonyl)piperazin-1-yl)methyl)-3-azaspiro[5.5]undecane-3-carbonyl)phenyl)piperidine-2,6-dione] | < 50 |  | B (when 50≤Dmax (%)<80, the level was B)
CCNc1cc([C@@H](C)Nc2nc(C)nc3cc(OC)c([C@H]4CC[C@H](C(=O)N5CCN(CC6CCC7(CC6)CCN(C(=O)c6ccc(Cl)c(N8CCC(=O)NC8=O)c6)CC7)CC5)CC4)cc23)cc(C(F)(F)F)c1 [Example 35, 1-(2-chloro-5-(9-((4-((1R,4R)-4-(4-(((R)-1-(3-(ethylamino)-5-(trifluoromethyl)phenyl)ethyl)amino)-7-methoxy-2-methylquinazolin-6-yl)cyclohexane-1-carbonyl)piperazin-1-yl)methyl)-3-azaspiro[5.5]undecane-3-carbonyl)phenyl)dihydropyrimidine-2,4(1H,3H)-dione] | 1000 to 10000 |  | C (when 30≤Dmax (%)<50, the level was C)
COc1cc2nc(C)nc(N[C@H](C)c3cc(N)cc(C(F)(F)F)c3)c2cc1[C@H]1CC[C@H](C(=O)N2CCN(CC#CC3CCN(C(=O)c4ccc(Cl)c(N5CCC(=O)NC5=O)c4)CC3)CC2)CC1 [Example 27, 1-(5-(4-(3-(4-((1R,4R)-4-(4-(((R)-1-(3-amino-5-(trifluoromethyl)phenyl)ethyl)amino)-7-methoxy-2-methylquinazolin-6-yl)cyclohexane-1-carbonyl)piperazin-1-yl)prop-1-yn-1-yl)piperidine-1-carbonyl)-2-chlorophenyl)dihydropyrimidine-2,4(1H,3H)-dione] | 1000 to 10000 | < 30 | 
COc1cc2nc(C)nc(N[C@H](C)c3cc(N)cc(C(F)(F)F)c3)c2cc1[C@H]1CC[C@H](C(=O)N(C)CC2CCC3(CC2)CCN(C(=O)c2ccc(Cl)c(N4CCC(=O)NC4=O)c2)CC3)CC1 [Example 9, (1R,4R)-4-(4-(((R)-1-(3-amino-5-(trifluoromethyl)phenyl)ethyl)amino)-7-methoxy-2-methylquinazolin-6-yl)-N-((3-(4-chloro-3-(2,4-dioxotetrahydropyrimidin-1(2H)-yl)benzoyl)-3-azaspiro[5.5]undecane-9-yl)methyl)-N-methylcyclohexane-1-carboxamide] | 1000 to 10000 | < 30 | 
COc1cc2nc(C)nc(N[C@H](C)c3cc(NC(C)=O)cc(C(F)(F)F)c3)c2cc1[C@H]1CC[C@H](C(=O)N2CCN(CC3CCC4(CC3)CCN(C(=O)c3ccc(Cl)c(N5CCC(=O)NC5=O)c3)CC4)CC2)CC1 [Example 17, N-(3-((R)-1-((6-((1R,4R)-4-(4-((3-(4-chloro-3-(2,4-dioxotetrahydropyrimidin-1(2H)-yl)benzoyl)-3-azaspiro[5.5]undecane-9-yl)methyl)piperazine-1-carbonyl)cyclohexyl)-7-methoxy-2-methylquinazolin-4-yl)amino)ethyl)-5-(trifluoromethyl)phenyl)acetamide] | 1000 to 10000 | 30 to 50 | 
COc1cc2nc(C)nc(N[C@H](C)c3cc(N)cc(C(F)(F)F)c3)c2cc1[C@H]1CC[C@H](C(=O)N2CCC(CC3CCC4(CC3)CCN(C(=O)c3ccc(Cl)c(N5CCC(=O)NC5=O)c3)CC4)CC2)CC1 [Example 8, 1-(5-(9-((1-((1R,4R)-4-(4-(((R)-1-(3-amino-5-(trifluoromethyl)phenyl)ethyl)amino)-7-methoxy-2-methylquinazolin-6-yl)cyclohexane-1-carbonyl)piperidin-4-yl)methyl)-3-azaspiro[5.5]undecane-3-carbonyl)-2-chlorophenyl)dihydropyrimidine-2,4(1H,3H)-dione] | 50 to 100 | 80 to 100 | 

Further lines, with some results ahead:

DC50 [nM] | Dmax [%] | Compound | NCI-H358 (G12C) Dmax
< 50 | 80 to 100 | COc1cc2nc(C)nc(N[C@H](C)c3cc(-c4ccccc4CN(C)C)cs3)c2cc1[C@H]1CC[C@H](C(=O)N2CCC(CCOCC3CCN(C(=O)c4ccc(Cl)c(N5CCC(=O)NC5=O)c4)CC3)CC2)CC1 [Example 48] | 
500 to 1000 | 80 to 100 | Cc1nc(N[C@H](C)c2cc(N)cc(C(F)(F)F)c2)c2cc(C3CCN(CC(=O)NCCC4CCC5(CC4)CCN(C(=O)c4ccc(Cl)c(N6CCC(=O)NC6=O)c4)CC5)CC3)ccc2n1 [Example 77, (R)-2-(4-(4-((1-(3-amino-5-(trifluoromethyl)phenyl)ethyl)amino)-2-methylquinazolin-6-yl)piperidin-1-yl)-N-(2-(3-(4-chloro-3-(2,4-dioxotetrahydropyrimidin-1(2H)-yl)benzoyl)-3-azaspiro[5.5]undecan-9-yl)ethyl)acetamide] | 
< 50 | 80 to 100 | COc1cc2nc(C)nc(N[C@H](C)c3cc(N)cc(C(F)(F)F)c3)c2cc1C1=CCC(C(=O)N2CCC(CCOCC3CCN(C(=O)c4ccc(OC)c(N5CCC(=O)NC5=O)c4)CC3)CC2)CC1 (stereo partly drawn) [Example 32, 1-(5-(4-((2-(1-(4-(4-(((R)-1-(3-amino-5-(trifluoromethyl)phenyl)ethyl)amino)-7-methoxy-2-methylquinazolin-6-yl)cyclohex-3-ene-1-carbonyl)piperidin-4-yl)ethoxy)methyl)piperidine-1-carbonyl)-2-methoxyphenyl)dihydropyrimidine-2,4(1H,3H)-dione] | 
